Experimental data as given in ChEMBL document CHEMBL3997794, “Design and synthesis of benzodiazepine analogs as isoform-selective human lysine deacetylase inhibitors” (Eur J Med Chem, 2017).

Tests used:
[1] = molecular target: T1, Histone deacetylase 8 (Homo sapiens) (UniProt Q9BY41); assay: Inhibition of human KDAC8 at 30 uM after 60 mins by fluorescence assay relative to control
T1 sequence (whole entry): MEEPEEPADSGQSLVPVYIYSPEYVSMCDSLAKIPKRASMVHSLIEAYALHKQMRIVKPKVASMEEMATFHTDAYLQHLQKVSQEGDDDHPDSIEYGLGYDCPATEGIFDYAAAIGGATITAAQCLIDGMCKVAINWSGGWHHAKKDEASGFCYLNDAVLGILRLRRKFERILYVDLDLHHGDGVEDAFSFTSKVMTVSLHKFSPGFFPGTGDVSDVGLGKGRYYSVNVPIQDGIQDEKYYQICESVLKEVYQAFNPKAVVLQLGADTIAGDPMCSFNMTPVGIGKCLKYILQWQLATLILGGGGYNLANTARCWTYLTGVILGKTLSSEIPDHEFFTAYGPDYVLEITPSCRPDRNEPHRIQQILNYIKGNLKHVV

Histone deacetylase 3 [2] = molecular target: T2, Histone deacetylase 3 (Homo sapiens, UniProt O15379); assay: Inhibition of human KDAC3 using FITC-labeled p53 acetylated peptide as substrate after 60 mins by fluorescence assay
T2 sequence (O15379 whole entry): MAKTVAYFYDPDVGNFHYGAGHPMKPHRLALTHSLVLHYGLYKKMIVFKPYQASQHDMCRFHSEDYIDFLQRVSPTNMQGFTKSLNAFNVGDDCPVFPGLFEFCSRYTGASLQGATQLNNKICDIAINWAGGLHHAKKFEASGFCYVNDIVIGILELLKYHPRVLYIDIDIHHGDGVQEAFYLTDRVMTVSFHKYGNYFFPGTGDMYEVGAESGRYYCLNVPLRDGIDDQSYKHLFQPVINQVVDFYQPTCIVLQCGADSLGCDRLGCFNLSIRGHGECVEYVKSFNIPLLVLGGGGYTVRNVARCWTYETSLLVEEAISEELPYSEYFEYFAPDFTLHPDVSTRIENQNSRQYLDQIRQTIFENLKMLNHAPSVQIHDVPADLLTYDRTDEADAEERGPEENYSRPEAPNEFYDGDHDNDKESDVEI

Histone deacetylase 3 [3] = molecular target: T2, Histone deacetylase 3; assay: Inhibition of human KDAC3 at 30 uM using FITC-labeled p53 acetylated peptide as substrate after 60 mins by fluorescence assay relative to control
[4] = molecular target: T3, Protein deacetylase HDAC6 (Homo sapiens, UniProt Q9UBN7); assay: Inhibition of human KDAC6 using FITC-labeled histone H4 acetylated peptide as substrate after 60 mins by fluorescence assay
T3 sequence (Q9UBN7 whole entry): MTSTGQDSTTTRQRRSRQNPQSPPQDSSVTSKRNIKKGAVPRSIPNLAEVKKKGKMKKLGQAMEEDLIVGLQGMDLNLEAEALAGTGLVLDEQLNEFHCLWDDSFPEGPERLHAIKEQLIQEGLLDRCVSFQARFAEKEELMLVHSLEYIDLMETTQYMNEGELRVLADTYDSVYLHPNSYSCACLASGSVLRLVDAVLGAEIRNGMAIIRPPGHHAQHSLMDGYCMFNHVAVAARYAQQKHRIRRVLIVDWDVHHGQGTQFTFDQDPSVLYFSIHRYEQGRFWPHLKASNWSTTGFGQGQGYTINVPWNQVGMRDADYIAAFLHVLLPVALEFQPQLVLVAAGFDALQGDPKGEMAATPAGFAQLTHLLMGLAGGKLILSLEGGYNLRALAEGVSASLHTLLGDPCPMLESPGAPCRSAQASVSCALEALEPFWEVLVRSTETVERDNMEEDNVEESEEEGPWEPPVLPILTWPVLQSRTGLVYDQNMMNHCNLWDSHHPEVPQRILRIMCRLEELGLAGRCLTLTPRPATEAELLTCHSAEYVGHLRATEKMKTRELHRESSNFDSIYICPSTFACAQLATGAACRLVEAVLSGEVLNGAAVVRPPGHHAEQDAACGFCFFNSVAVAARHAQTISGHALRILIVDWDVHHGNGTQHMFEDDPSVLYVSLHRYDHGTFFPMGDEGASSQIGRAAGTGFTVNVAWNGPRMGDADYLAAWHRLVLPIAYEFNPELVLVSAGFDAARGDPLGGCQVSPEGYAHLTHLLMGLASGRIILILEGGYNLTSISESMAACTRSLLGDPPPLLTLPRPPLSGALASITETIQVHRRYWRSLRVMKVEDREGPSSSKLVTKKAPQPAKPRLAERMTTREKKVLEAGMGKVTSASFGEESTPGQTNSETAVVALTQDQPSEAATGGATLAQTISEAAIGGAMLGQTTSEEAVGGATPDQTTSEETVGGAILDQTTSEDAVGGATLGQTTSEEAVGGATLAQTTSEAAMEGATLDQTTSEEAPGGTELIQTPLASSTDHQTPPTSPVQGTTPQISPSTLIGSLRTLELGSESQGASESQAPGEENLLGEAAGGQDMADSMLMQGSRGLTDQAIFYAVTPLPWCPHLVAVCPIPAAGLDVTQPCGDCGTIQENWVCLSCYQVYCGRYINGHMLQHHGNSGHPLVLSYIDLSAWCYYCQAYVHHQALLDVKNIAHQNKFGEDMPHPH

[5] = molecular target: T4, Protein deacetylase HDAC6 (Homo sapiens) (UniProt Q9UBN7); conditions: at 30 µM
T4 sequence (whole entry): T3 sequence (Q9UBN7 whole entry)
Description: Inhibition of human KDAC6 at 30 uM using FITC-labeled histone H4 acetylated peptide as substrate after 60 mins by fluorescence assay relative to control

Histone deacetylase 8 = molecular target: T5, Histone deacetylase 8 (Homo sapiens, UniProt Q9BY41); assay: Inhibition of human KDAC8 after 60 mins by fluorescence assay
T5 sequence (Q9BY41 whole entry): T1 sequence (whole entry)

Histone deacetylase 1 [6] = molecular target: T6, Histone deacetylase 1 (Homo sapiens, UniProt Q13547); assay: Inhibition of human KDAC1 at 30 uM using substrate A after 60 mins by fluorescence assay relative to control
T6 sequence (Q13547 whole entry): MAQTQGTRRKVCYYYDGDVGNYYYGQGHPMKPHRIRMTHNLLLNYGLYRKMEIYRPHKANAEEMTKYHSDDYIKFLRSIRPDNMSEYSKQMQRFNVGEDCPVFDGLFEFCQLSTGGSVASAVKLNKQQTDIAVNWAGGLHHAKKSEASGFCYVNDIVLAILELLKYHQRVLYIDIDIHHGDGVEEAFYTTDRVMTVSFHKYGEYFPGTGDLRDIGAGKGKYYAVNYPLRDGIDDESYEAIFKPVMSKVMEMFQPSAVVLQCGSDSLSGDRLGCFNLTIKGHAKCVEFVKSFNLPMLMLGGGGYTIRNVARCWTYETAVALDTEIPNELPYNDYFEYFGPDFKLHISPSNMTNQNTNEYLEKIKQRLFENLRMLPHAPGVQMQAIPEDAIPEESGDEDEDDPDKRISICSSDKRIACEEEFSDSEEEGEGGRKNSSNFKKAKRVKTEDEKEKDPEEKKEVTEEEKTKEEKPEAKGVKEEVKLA

Histone deacetylase 1 [7] = molecular target: T6, Histone deacetylase 1; assay: Inhibition of human KDAC1 using substrate A after 60 mins by fluorescence assay

For COC(=O)CCCCN1C(=O)[C@@H](CSC(C)(C)C)N=C(c2ccccc2)c2ccccc21, which inhibition [1] is on record?
Its inhibition is 0%.

What about the IC50 (Histone deacetylase 3 [2]) of the same compound?
The IC50 was greater than 30 µM.

And the inhibition (Histone deacetylase 3 [3])?
Its inhibition is 0%.

What about the IC50 [4] of the same compound?
The IC50 was greater than 30 µM.

What about the inhibition [5] of the same compound?
The inhibition was 0%.

What about the IC50 (Histone deacetylase 8) of the same compound?
Its IC50 is greater than 30 µM.

And the inhibition (Histone deacetylase 1 [6])?
Its inhibition is 3.94%.

What about the IC50 (Histone deacetylase 1 [7]) of the same compound?
The IC50 was greater than 30 µM.

How did the inhibition [1] turn out when O=C(O)C[C@H]1N=C(c2ccccc2)c2ccccc2NC1=O was run?
The inhibition was 0%.

And the IC50 (Histone deacetylase 3 [2])?
The IC50 was greater than 30 µM.

And the inhibition (Histone deacetylase 3 [3])?
Its inhibition is 0%.

And the IC50 [4]?
The IC50 was greater than 30 µM.

And the inhibition [5]?
The inhibition was 0%.

And the IC50 (Histone deacetylase 8)?
Its IC50 is greater than 30 µM.

What about the inhibition (Histone deacetylase 1 [6]) of the same compound?
Its inhibition is 0.74%.

And the IC50 (Histone deacetylase 1 [7])?
The IC50 was greater than 30 µM.

What does the source list for O=C(CCCCN1C(=O)[C@@H](CS)N=C(c2ccccc2)c2ccccc21)NO?
inhibition [1]: 81.2%; IC50 (Histone deacetylase 3 [2]): 0.18 µM; inhibition (Histone deacetylase 3 [3]): 100%; IC50 [4]: 0.58 µM; inhibition [5]: 96.9%; IC50 (Histone deacetylase 8): 8.11 µM; inhibition (Histone deacetylase 1 [6]): 97.3%; IC50 (Histone deacetylase 1 [7]): 0.46 µM

For CC(C)[C@@H]1N=C(c2ccccc2)c2ccccc2N(CCCCC(=O)NO)C1=O, which inhibition [1] is on record?
The inhibition was 59.4%.

And the IC50 (Histone deacetylase 3 [2])?
The IC50 was 0.6 µM.

What about the inhibition (Histone deacetylase 3 [3]) of the same compound?
The inhibition was 97%.

What about the IC50 [4] of the same compound?
Its IC50 is 1.35 µM.

And the inhibition [5]?
The inhibition was 95.5%.

What about the IC50 (Histone deacetylase 8) of the same compound?
The IC50 was 19.8 µM.

What about the inhibition (Histone deacetylase 1 [6]) of the same compound?
Its inhibition is 81.4%.

And the IC50 (Histone deacetylase 1 [7])?
Its IC50 is 5.27 µM.

Which results are given for COC(=O)CCCCN1C(=O)[C@H](CCSC)N=C(c2ccccc2)c2ccccc21?
inhibition [1]: 0%; IC50 (Histone deacetylase 3 [2]): > 30 µM; inhibition (Histone deacetylase 3 [3]): 0%; IC50 [4]: > 30 µM; inhibition [5]: 0%; IC50 (Histone deacetylase 8): > 30 µM; inhibition (Histone deacetylase 1 [6]): 0%; IC50 (Histone deacetylase 1 [7]): > 30 µM

Which results are given for CC(C)(C)OC[C@@H]1N=C(c2ccccc2)c2ccccc2N(CCCCC(=O)O)C1=O?
inhibition [1]: 5.87%; IC50 (Histone deacetylase 3 [2]): > 30 µM; inhibition (Histone deacetylase 3 [3]): 0%; IC50 [4]: > 30 µM; inhibition [5]: 0%; IC50 (Histone deacetylase 8): > 30 µM; inhibition (Histone deacetylase 1 [6]): 3.74%; IC50 (Histone deacetylase 1 [7]): > 30 µM

Which inhibition [1] does the source give for CC(C)(C)SC[C@H]1N=C(c2ccccc2)c2ccccc2N(CCCCC(=O)NO)C1=O here?
The inhibition was 44.6%.

What about the IC50 (Histone deacetylase 3 [2]) of the same compound?
Its IC50 is 0.75 µM.

What about the inhibition (Histone deacetylase 3 [3]) of the same compound?
Its inhibition is 98.8%.

And the IC50 [4]?
The IC50 was 5.37 µM.

What about the inhibition [5] of the same compound?
The inhibition was 88%.

What about the IC50 (Histone deacetylase 8) of the same compound?
Its IC50 is greater than 30 µM.

And the inhibition (Histone deacetylase 1 [6])?
The inhibition was 79.9%.

And the IC50 (Histone deacetylase 1 [7])?
Its IC50 is 7.99 µM.

How did the inhibition [1] turn out when COC(=O)CCCCN1C(=O)[C@H]([C@@H](C)OCc2ccccc2)N=C(c2ccccc2)c2ccccc21 was run?
Its inhibition is 6.88%.

And the IC50 (Histone deacetylase 3 [2])?
The IC50 was greater than 30 µM.

And the inhibition (Histone deacetylase 3 [3])?
Its inhibition is 7.91%.

What about the IC50 [4] of the same compound?
Its IC50 is greater than 30 µM.

And the inhibition [5]?
Its inhibition is 0%.

And the IC50 (Histone deacetylase 8)?
Its IC50 is greater than 30 µM.

What about the inhibition (Histone deacetylase 1 [6]) of the same compound?
Its inhibition is 0.64%.

And the IC50 (Histone deacetylase 1 [7])?
The IC50 was greater than 30 µM.

What does the source list for O=C1Nc2ccccc2C(c2ccccc2)=N[C@H]1Cc1ccccc1?
inhibition [1]: 0%; IC50 (Histone deacetylase 3 [2]): > 30 µM; inhibition (Histone deacetylase 3 [3]): 0%; IC50 [4]: > 30 µM; inhibition [5]: 3.33%; IC50 (Histone deacetylase 8): > 30 µM; inhibition (Histone deacetylase 1 [6]): 0.91%; IC50 (Histone deacetylase 1 [7]): > 30 µM

For CC(C)(C)OC(=O)C[C@@H]1N=C(c2ccccc2)c2ccccc2NC1=O, which inhibition [1] is on record?
The inhibition was 5.34%.

What about the IC50 (Histone deacetylase 3 [2]) of the same compound?
The IC50 was greater than 30 µM.

What about the inhibition (Histone deacetylase 3 [3]) of the same compound?
The inhibition was 3.95%.

What about the IC50 [4] of the same compound?
Its IC50 is greater than 30 µM.

And the inhibition [5]?
The inhibition was 0%.

What about the IC50 (Histone deacetylase 8) of the same compound?
Its IC50 is greater than 30 µM.

What about the inhibition (Histone deacetylase 1 [6]) of the same compound?
The inhibition was 9.6%.

What about the IC50 (Histone deacetylase 1 [7]) of the same compound?
The IC50 was greater than 30 µM.

Which inhibition [1] does the source give for CC(C)(C)SC[C@H]1N=C(c2ccccc2)c2ccccc2N(CCCCC(=O)O)C1=O here?
The inhibition was 8.31%.

And the IC50 (Histone deacetylase 3 [2])?
Its IC50 is greater than 30 µM.

What about the inhibition (Histone deacetylase 3 [3]) of the same compound?
The inhibition was 0%.

What about the IC50 [4] of the same compound?
The IC50 was greater than 30 µM.

What about the inhibition [5] of the same compound?
The inhibition was 2.08%.

What about the IC50 (Histone deacetylase 8) of the same compound?
The IC50 was greater than 30 µM.

And the inhibition (Histone deacetylase 1 [6])?
The inhibition was 12.1%.

And the IC50 (Histone deacetylase 1 [7])?
Its IC50 is greater than 30 µM.

How did the inhibition [1] turn out when O=C(CC[C@H]1N=C(c2ccccc2)c2ccccc2NC1=O)NO was run?
The inhibition was 9.02%.

What about the IC50 (Histone deacetylase 3 [2]) of the same compound?
Its IC50 is greater than 30 µM.

What about the inhibition (Histone deacetylase 3 [3]) of the same compound?
Its inhibition is 29.4%.

What about the IC50 [4] of the same compound?
Its IC50 is greater than 30 µM.

What about the inhibition [5] of the same compound?
The inhibition was 19%.

And the IC50 (Histone deacetylase 8)?
The IC50 was greater than 30 µM.

What about the inhibition (Histone deacetylase 1 [6]) of the same compound?
The inhibition was 28%.

What about the IC50 (Histone deacetylase 1 [7]) of the same compound?
Its IC50 is greater than 30 µM.

Which inhibition [1] does the source give for CC(C)C[C@@H]1N=C(c2ccccc2)c2ccccc2N(CCCCC(=O)O)C1=O here?
The inhibition was 7%.

And the IC50 (Histone deacetylase 3 [2])?
The IC50 was greater than 30 µM.

What about the inhibition (Histone deacetylase 3 [3]) of the same compound?
Its inhibition is 0%.

And the IC50 [4]?
The IC50 was greater than 30 µM.

And the inhibition [5]?
The inhibition was 0%.

What about the IC50 (Histone deacetylase 8) of the same compound?
The IC50 was greater than 30 µM.

What about the inhibition (Histone deacetylase 1 [6]) of the same compound?
Its inhibition is 3.1%.

What about the IC50 (Histone deacetylase 1 [7]) of the same compound?
Its IC50 is greater than 30 µM.

What does the source list for COC(=O)CCCCN1C(=O)[C@H](C)N=C(c2ccccc2)c2ccccc21?
inhibition [1]: 12.7%; IC50 (Histone deacetylase 3 [2]): > 30 µM; inhibition (Histone deacetylase 3 [3]): 4.62%; IC50 [4]: > 30 µM; inhibition [5]: 8.84%; IC50 (Histone deacetylase 8): > 30 µM; inhibition (Histone deacetylase 1 [6]): 9.4%; IC50 (Histone deacetylase 1 [7]): > 30 µM
